“Also recorded” adds a separate entry of the source.
Columns and labels:
[1] = Half-life in human liver microsomes; assay type: in vitro ADME
HEK-hTRPV6 cells = assay type: cell-based, human; details: 10 μM, HEK-hTRPV6, 24 h
[2] = system: SKOV3, T47D, MCF-7, MDA-MB-231, HEK293 and HEK-hTRPV6 cells; assay: Antiproliferative activity, XTT, all six cell lines; assay type: cell-based, human; details: 6 days, up to 100 µM
Text: Here, we compared the effects of 1 and 39 on SKOV3 and T47D, as well as on MCF-7 and MDA-MB-231 as two additional breast cancer cell lines with low levels of TRPV6.[13],[44] Previous studies have shown that RNA silencing (siRNA) of TRPV6 reduces T47D cell proliferation.[11],[13]
Note that HEK-hTRPV6 was more susceptible to 1 toxicity than HEK293 wt cells, which might be related to the fact that HEK-hTRPV6 overexpressing cells proliferate faster than HEK293 wt cells in a Ca^2+-dependent manner (Table S3 ^†).[46] […] This highlights the need for future studies to uncover the precise role of TRPV6 in cancer progression.
12. Antiproliferative activity
Unless specified cell culture reagents were obtained from Gibco, Life Technology, Switzerland. MCF -7 (human mammary adenocarcinoma), MDA-MB-231 (human mammary adenocarcinoma) were obtained from the ATCC cell bank. T47D (human mammary ductal carcinoma) cell line was obtained from NIH cell collection. These cells were grown in RPMI medium complemented with 10% FBS, 2mM L-Glutamine, 100 U/ml Penicillin and 100 μg/ml Streptomycin (Sigma) and 1% non-essential amino acids (Bioconcept, Switzerland). HEK293 (human embryonic kidney) and SKOV-3 (human ovary adenocarcinoma) cell lines were obtained from the ATCC cell bank. HEK-hTRPV6 and HEK293 and SKOV-3 were grown in DMEM medium supplemented with 10% FBS, 2mM L-Glutamine, 100 U/ml Penicillin and 100 μg/ml Streptomycin (Sigma) and 1% non-essential amino acids (Bioconcept, Switzerland).
The XTT assay was used to evaluate cell proliferation. Cells were plated at a density of 5 x 10^3 cells/well in 96-well plates and were incubated at 37 °C for 24 h. On the following day, the medium was carefully […]
Doxorubicin (10 µM) and DMSO (0.01 %) were used as positive and negative controls, respectively. All the treatments used the original cell medium (RPMI or DMEM), depending on the cell line. Cells were incubated for a total of 6 days at 37 °C with the medium (treatment and controls) being replaced by a freshly prepared solution every 48 h. Then, 25 μL of XTT (with 1.25 % of PMS) was added to each well and incubated at 37 °C for 2 h. Subsequently, the absorbance was read at 650 nm and subtracted from the […]
The resulting subtracted absorbance for each compound concentration (At) was expressed as a percentage of viable cells relative to the negative control (Ab), and the percentage of viable cells was plotted and the inhibition curves obtained by non-linear regression using the built-in log(inhibitor) vs. response-variable slope function (GraphPad® Prism, v. 5.0, San Diego, CA, US).
. Data shown are mean ± SEM (n =
3/concentration) of at least 3 independent experiments. ND = not determined, no inhibition of cell

## O=c1ccc(CN2CCN([C@H]3CC[C@@](O)(c4cccc(C(F)(F)F)c4)CC3)CC2)c[nH]1 [compound 39]
[1]
  microsomal stability: high microsomal stability
[1]; human, liver microsomes, read-out: half-life in human liver microsomes (t1/2)
  half-life: > 1 h
HEK-hTRPV6 cells
  effect on Cd2+ toxicity: significantly reduced the toxic effect
[2]
  effect on cell proliferation / cellular toxicity: did not observe any significant decrease in proliferation; also recorded: does not display any measurable cellular toxicity
[2]; listed as 3OG
  effect on cell proliferation / cellular toxicity: does not exhibit any non-specific toxicity effects

Source: paper PMC7513592 (RSC Medicinal Chemistry, 2020)
